Test results reported in patent publication US12215112B2, “CD151 inhibitors” (ESFAM BIOTECH PTY LTD, priority 2020, dated 2025).

Test system: PC3 cells
Experiment: xCELLigence RTCA real-time cell invasion assay (CIM plate, Matrigel) on PC3 prostate cancer cells
Assay type: cell-based
Conditions: Homo sapiens, PC-3, compound 25 uM to 1 uM, cell index monitored for 72 hours, four-parameter dose-response curve, read-out: IC50, Effect of compounds on the invention on prostate cancer cells
In short: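 PC3 invasion through 5% Matrigel-coated CIM-plate upper chambers was tracked as impedance cell index over 72 h. Compound at 25–1 µM was present in both chambers, with 3×10^4 cells seeded in serum-free RPMI. IC50 came from a four-parameter fit, and IC90 was derived from IC50 and the Hill slope.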

| IC50 [nM] | Structure (SMILES) |
| --- | --- |
| 2450 | COc1cccc(NC(=O)c2nn3c(-c4cn[nH]c4)cc(N4Cc5ccc(Cl)cc5C4)nc3c2C(C)C)c1 [Compound 81, 5-(5-chloroisoindolin-2-yl)-3-isopropyl-N-(3-methoxyphenyl)-7-(1H-pyrazol-4-yl)pyrazolo[1,5-a]pyrimidine-2-carboxamide] |
| 2920 | CC(=O)Nc1cccc(NC(=O)c2nn3c(-c4cn[nH]c4)cc(N4Cc5ccc(Cl)cc5C4)nc3c2C(C)C)c1 [Compound 82, N-(3-acetamidophenyl)-5-(5-chloroisoindolin-2-yl)-3-isopropyl-7-(1H-pyrazol-4-yl)pyrazolo[1,5-a]pyrimidine-2-carboxamide] |
| 1100 | CC(=O)N1CCN(c2ccc(NC(=O)c3nn4c(-c5cn[nH]c5)cc(N5Cc6ccc(Cl)cc6C5)nc4c3C(C)C)cc2)CC1 [Compound 84, N-(4-(4-acetylpiperazin-1-yl)phenyl)-5-(5-chloroisoindolin-2-yl)-3-isopropyl-7-(1H-pyrazol-4-yl)pyrazolo[1,5-a]pyrimidine-2-carboxamide] |
| 2230 | CC(C)c1c(C(=O)Nc2cccc(O)c2)nn2c(-c3cn[nH]c3)cc(N3Cc4ccc(Cl)cc4C3)nc12 [Compound 100, 5-(5-chloroisoindolin-2-yl)-N-(3-hydroxyphenyl)-3-isopropyl-7-(1H-pyrazol-4-yl)pyrazolo[1,5-a]pyrimidine-2-carboxamide] |
| 1270 | COCCOc1ccc(NC(=O)c2nn3c(-c4cn[nH]c4)cc(N4Cc5ccc(F)cc5C4)nc3c2C(C)C)cc1 [Compound 102, 5-(5-fluoroisoindolin-2-yl)-3-isopropyl-N-(4-(2-methoxyethoxy)phenyl)-7-(1H-pyrazol-4-yl)pyrazolo[1,5-a]pyrimidine-2-carboxamide] |
| 2020 | CC(C)c1c(C(=O)Nc2ccc(N3CCOCC3)cc2)nn2c(-c3cn[nH]c3)cc(N3Cc4ccc(F)cc4C3)nc12 [Compound 106, 5-(5-fluoroisoindolin-2-yl)-3-isopropyl-N-(4-morpholinophenyl)-7-(1H-pyrazol-4-yl)pyrazolo[1,5-a]pyrimidine-2-carboxamide] |
| 2360 | CC(C)c1c(C(=O)Nc2ccc(N3CCOCC3)cc2)nn2c(-c3cn[nH]c3)cc(N3Cc4ccc(Cl)cc4C3)nc12 [Compound 107, 5-(5-chloroisoindolin-2-yl)-3-isopropyl-N-(4-morpholinophenyl)-7-(1H-pyrazol-4-yl)pyrazolo[1,5-a]pyrimidine-2-carboxamide] |
| 18700 | CC(C)c1c(C(=O)Nc2cccc(N3CCOCC3)c2)nn2c(-c3cn[nH]c3)cc(N3Cc4ccc(Cl)cc4C3)nc12 [Compound 108, 5-(5-chloroisoindolin-2-yl)-3-isopropyl-N-(3-morpholinophenyl)-7-(1H-pyrazol-4-yl)pyrazolo[1,5-a]pyrimidine-2-carboxamide] |
| 3230 | COCCOc1ccc(NC(=O)c2nn3c(-c4cn[nH]c4)cc(N4Cc5ccc(Cl)cc5C4)nc3c2C(C)C)cc1 [Compound 109, 5-(5-chloroisoindolin-2-yl)-3-isopropyl-N-(4-(2-methoxyethoxy)phenyl)-7-(1H-pyrazol-4-yl)pyrazolo[1,5-a]pyrimidine-2-carboxamide] |
| 3150 | CC(C)c1c(C(=O)Nc2ccc(OC3CCOCC3)cc2)nn2c(-c3cn[nH]c3)cc(N3Cc4ccc(Cl)cc4C3)nc12 [Compound 119, 5-(5-chloroisoindolin-2-yl)-3-isopropyl-7-(1H-pyrazol-4-yl)-N-(4-((tetrahydro-2H-pyran-4-yl)oxy)phenyl)pyrazolo[1,5-a]pyrimidine-2-carboxamide] |
| 4940 | COc1ccc(F)c(NC(=O)c2nn3c(-c4cn[nH]c4)cc(N4Cc5ccc(Cl)cc5C4)nc3c2C(C)C)c1 [Compound 120, 5-(5-chloroisoindolin-2-yl)-N-(2-fluoro-5-methoxyphenyl)-3-isopropyl-7-(1H-pyrazol-4-yl)pyrazolo[1,5-a]pyrimidine-2-carboxamide] |
| 2750 | CC(C)c1c(C(=O)Nc2cccc(OC3CCOCC3)c2)nn2c(-c3cn[nH]c3)cc(N3Cc4ccc(F)cc4C3)nc12 [Compound 121, 5-(5-fluoroisoindolin-2-yl)-3-isopropyl-7-(1H-pyrazol-4-yl)-N-(3-((tetrahydro-2H-pyran-4-yl)oxy)phenyl)pyrazolo[1,5-a]pyrimidine-2-carboxamide] |
| 1020 | CC(C)c1c(C(=O)Nc2ccc(OC3CCOCC3)cc2)nn2c(-c3cn[nH]c3)cc(N3Cc4ccc(F)cc4C3)nc12 [Compound 123, 5-(5-fluoroisoindolin-2-yl)-3-isopropyl-7-(1H-pyrazol-4-yl)-N-(4-((tetrahydro-2H-pyran-4-yl)oxy)phenyl)pyrazolo[1,5-a]pyrimidine-2-carboxamide] |

Further lines, the molecule ahead of its results:

| Structure (SMILES) | IC50 [nM] |
| --- | --- |
| CC(=O)N1CCN(c2cccc(NC(=O)c3nn4c(-c5cn[nH]c5)cc(N5Cc6ccc(Cl)cc6C5)nc4c3C(C)C)c2)CC1 [Compound 83, N-(3-(4-acetylpiperazin-1-yl)phenyl)-5-(5-chloroisoindolin-2-yl)-3-isopropyl-7-(1H-pyrazol-4-yl)pyrazolo[1,5-a]pyrimidine-2-carboxamide] | 10100 |
| COc1cccc(NC(=O)c2nn3c(-c4cn[nH]c4)cc(N4Cc5ccc(Cl)cc5C4)nc3c2C(C)(C)C)c1 [Compound 89, 3-(tert-butyl)-5-(5-chloroisoindolin-2-yl)-N-(3-methoxyphenyl)-7-(1H-pyrazol-4-yl)pyrazolo[1,5-a]pyrimidine-2-carboxamide] | 3110 |
| O=C(Nc1cccc(O)c1)c1nn2c(-c3cn[nH]c3)cc(N3Cc4ccccc4C3)nc2c1C1CC1 [Compound 94, 3-cyclopropyl-N-(3-hydroxyphenyl)-5-(isoindolin-2-yl)-7-(1H-pyrazol-4-yl)pyrazolo[1,5-a]pyrimidine-2-carboxamide] | 6210 |
| CC(=O)N1CCN(c2cccc(NC(=O)c3nn4c(-c5cn[nH]c5)cc(N5Cc6ccccc6C5)nc4c3C3CC3)c2)CC1 [Compound 95, N-(3-(4-acetylpiperazin-1-yl)phenyl)-3-cyclopropyl-5-(isoindolin-2-yl)-7-(1H-pyrazol-4-yl)pyrazolo[1,5-a]pyrimidine-2-carboxamide] | 2120 |
| COc1ccc(NC(=O)c2nn3c(-c4cn[nH]c4)cc(N4Cc5ccccc5C4)nc3c2C2CC2)cc1 [Compound 96, 3-cyclopropyl-5-(isoindolin-2-yl)-N-(4-methoxyphenyl)-7-(1H-pyrazol-4-yl)pyrazolo[1,5-a]pyrimidine-2-carboxamide] | 6470 |
| CC(=O)Nc1cccc(NC(=O)c2nn3c(-c4cn[nH]c4)cc(N4Cc5ccccc5C4)nc3c2C2CC2)c1 [Compound 97, N-(3-acetamidophenyl)-3-cyclopropyl-5-(isoindolin-2-yl)-7-(1H-pyrazol-4-yl)pyrazolo[1,5-a]pyrimidine-2-carboxamide] | 1080 |
| O=C(Nc1cccc(Cl)c1)c1nn2c(-c3cn[nH]c3)cc(N3Cc4ccccc4C3)nc2c1C1CC1 [Compound 98, N-(3-chlorophenyl)-3-cyclopropyl-5-(isoindolin-2-yl)-7-(1H-pyrazol-4-yl)pyrazolo[1,5-a]pyrimidine-2-carboxamide] | 12500 |
| CC(C)c1c(C(=O)Nc2cccc(O)c2)nn2c(-c3cn[nH]c3)cc(N3Cc4ccc(F)cc4C3)nc12 [Compound 99, 5-(5-fluoroisoindolin-2-yl)-N-(3-hydroxyphenyl)-3-isopropyl-7-(1H-pyrazol-4-yl)pyrazolo[1,5-a]pyrimidine-2-carboxamide] | 1230 |
| CC(C)c1c(C(=O)Nc2cccc(N3CCOCC3)c2)nn2c(-c3cn[nH]c3)cc(N3Cc4ccc(F)cc4C3)nc12 [Compound 101, 5-(5-fluoroisoindolin-2-yl)-3-isopropyl-N-(3-morpholinophenyl)-7-(1H-pyrazol-4-yl)pyrazolo[1,5-a]pyrimidine-2-carboxamide] | 3990 |
| CC(C)c1c(C(=O)Nc2ccc3cn[nH]c3c2)nn2c(-c3cn[nH]c3)cc(N3Cc4ccc(F)cc4C3)nc12 [Compound 104, 5-(5-fluoroisoindolin-2-yl)-N-(1H-indazol-6-yl)-3-isopropyl-7-(1H-pyrazol-4-yl)pyrazolo[1,5-a]pyrimidine-2-carboxamide] | 2890 |
| COc1cccc(NC(=O)c2nn3c(-c4cn[nH]c4)cc(N4Cc5ccc(F)cc5C4)nc3c2C(C)C)c1F [Compound 122, N-(2-fluoro-3-methoxyphenyl)-5-(5-fluoroisoindolin-2-yl)-3-isopropyl-7-(1H-pyrazol-4-yl)pyrazolo[1,5-a]pyrimidine-2-carboxamide] | 9070 |
| COc1ccc(F)c(NC(=O)c2nn3c(-c4cn[nH]c4)cc(N4Cc5ccc(F)cc5C4)nc3c2C(C)C)c1 [Compound 124, N-(2-fluoro-5-methoxyphenyl)-5-(5-fluoroisoindolin-2-yl)-3-isopropyl-7-(1H-pyrazol-4-yl)pyrazolo[1,5-a]pyrimidine-2-carboxamide] | 1150 |
| COc1cccc(NC(=O)c2nn3c(-c4cn[nH]c4)cc(N4Cc5cccc(F)c5C4)nc3c2C(C)C)c1 [Compound 125, 5-(4-fluoroisoindolin-2-yl)-3-isopropyl-N-(3-methoxyphenyl)-7-(1H-pyrazol-4-yl)pyrazolo[1,5-a]pyrimidine-2-carboxamide] | 7620 |
| COc1cccc(NC(=O)c2nn3c(-c4cn[nH]c4)cc(N4Cc5cccc(Cl)c5C4)nc3c2C(C)C)c1 [Compound 126, 5-(4-chloroisoindolin-2-yl)-3-isopropyl-N-(3-methoxyphenyl)-7-(1H-pyrazol-4-yl)pyrazolo[1,5-a]pyrimidine-2-carboxamide] | 1200 |
